Reference: PMC11079024, “Identification of a family of species-selective complex I inhibitors as potential anthelmintics” (Nature Communications, 2024)
Where two headings read alike, the source gives them in different places.

Assays:
[1] = target: B. taurus (heart) complex I (Bos taurus, UniProt P03887+P17694+P42026); test: biochemical; format: biochemical; conditions: for IC50: heart mitochondria, read-out: B. taurus Complex I IC50
Experimental: Six 8–10-week-old C57Bl/6 female mice (Charles River) were freshly dissected, and their livers and hearts collected into separate 1.5 mL microcentrifuge tubes. Organs were flash-frozen in liquid nitrogen and stored at −80 °C prior to use. The heart of a freshly slaughtered adult cow was obtained from a local abattoir (Peel Sausage Inc.), chopped into ~1-inch cubes and collected into 50 mL falcon tubes. Falcon tubes were flash-frozen in a container of dry ice and stored at −80 °C prior to use. Isolation of mitochondria from all mammalian tissue was carried out following the protocol described above. However, due to size, the initial homogenization of tissue was performed by 15 strokes in a dounce homogenizer (mouse heart) or with several 5 s pulses in small Nutribullet blender (cow heart). All mouse protocols for mouse care and dissection were reviewed and approved by the University of Toronto Animal Care Committee, in accordance with the Canadian Council on Animal Care.
The enzymatic activities of individual ETC complexes (I-IV) were assessed spectrophotometrically in isolated mitochondria using a Varioskan LUX Multimode plate reader (ThermoFisher Scientific). Mitochondrial pellets previously isolated were thawed on ice and resuspended in ice-cold isolation buffer (250 mM sucrose, 10 mM Tris (pH 7.5), 1 mM EDTA). The BCA assay (Walker, 1994) was used to quantify the protein concentration of mitochondria suspensions; solutions were diluted to a concentration of 0.2 mg/mL for use in all assays. For the complex I assay, mitochondria pellets were freeze-thawed on ice three times to increase enzyme accessibility. […] 20 μL mitochondria suspension was then added/mixed with a pipette to initiate the reaction. Immediately following the addition of mitochondria, absorbance was measured (complex I and II: 600 nm; complex III and IV: 550 nm) in 30 s intervals over 15 min. Enzymatic activity was determined in each reaction by plotting absorbance versus time and calculating the slope of the curve during the initial linear phase of the reaction. […] Percent activity of each complex was calculated by dividing the enzyme-specific activity of each well by the enzyme-specific activity of the corresponding solvent controls.
Chemical solutions were prepared in complex I assay buffer composed of 25 mM KPi buffer (pH 7.5), 3 mg/mL bovine serum albumin (BSA), 80 μM NADH, 60 μM decylubiquinone, 160 μM DCIP, 2 μM antimycin A and 2 mM KCN.
For preliminary screens of hit compounds, compounds were screened at 100 μM; data are the average of at least three biological replicates. The complex I and II activity assays were used for additional dose-response experiments. […] For dose responses of benzimidazole analogs, data represent the average of two biological replicates. For all other dose-responses, data represent the average of at least three biological replicates.

[2] = tested on: ben-1 mutant (ECA882) C. elegans; test: microbe, parasite or virus in culture; conditions: for LC50: Caenorhabditis elegans; for C. elegans L1 relative development & viability: ECA882 deletion (ben-1)
Experimental: Liquid development and viability assays were adapted from a previously established chemical screening protocol (Burns et al.)[24]. In brief, a saturated culture of E. coli HB101 was concentrated 2-fold in liquid NGM and 40 μL of this suspension was distributed to each well of a 96-well flat-bottom culture plate. 0.5 μL chemical solution (or DMSO alone) was added to each well (1% DMSO v/v) using either a multi-channel pipette or a pinning tool (V&P Scientific). L1 worms synchronized from an embryo preparation performed the day prior were diluted to a concentration of ~2 worms/μL in M9 buffer; 10 μL worm suspension was then added to each well. Culture plates were sealed with parafilm and placed in a plastic container lined with wet paper towels to prevent evaporation. Containers were then incubated for 6 days at 20 °C with shaking at 165 rpm. Following incubation, 300 μL M9 was added to each well to decrease the turbidity of the HB101-NGM suspension. Single images of each microplate well were then taken on a Nikon Ti Eclipse inverted microscope (Nikon NIS Elements AR). Images were processed using Python scripts to isolate worm-associated pixels from background. Scores of worm development and viability were determined as the sum of worm-associated pixels in each well. Development/viability scores for each well were divided by the development /viability scores for the corresponding DMSO controls, resulting in a relative viability value for each chemical. At least three biological replicates were performed for each dose-response experiment; relative viability values were averaged across replicates. […]
anthelmintics. a. Chemical structures of four commercial benzimidazole anthelmintics (e.g., albendazole, […]
Dose response of four commercial […]
elegans strains: N2, wild type; ECA882, deletion (ben-1); ECA917, F200Y (ben-1); ECA1075, F167Y (ben-1); ECA1080, E198A (ben-1); CB3474, G104D (ben-1). The colour-coded scale denotes the phenotypic outcome of drug treatment (e.g., motility or viability) relative to DMSO controls; white/pale- […]
death and arrested development. c. […]
benzimidazole anthelmintics (blue) were conducted in C. elegans development and viability assays for wild type (N2) and ben-1 mutant (ECA882) C. elegans (see Supplementary Date File 1).
All data used for generation of dose-response curves is the mean of at least three […]
Supplementary Figure 7 (continued). Davie et al.

[3] = B. taurus (heart) mitochondria, mean of replicates, read-out: percent (%) in vitro complex I activity relative to solvent control
[4] = B. taurus (heart) mitochondria, single replicate, read-out: percent (%) in vitro complex I activity relative to solvent control

Sequence of B. taurus (heart) complex I (P03887 whole entry): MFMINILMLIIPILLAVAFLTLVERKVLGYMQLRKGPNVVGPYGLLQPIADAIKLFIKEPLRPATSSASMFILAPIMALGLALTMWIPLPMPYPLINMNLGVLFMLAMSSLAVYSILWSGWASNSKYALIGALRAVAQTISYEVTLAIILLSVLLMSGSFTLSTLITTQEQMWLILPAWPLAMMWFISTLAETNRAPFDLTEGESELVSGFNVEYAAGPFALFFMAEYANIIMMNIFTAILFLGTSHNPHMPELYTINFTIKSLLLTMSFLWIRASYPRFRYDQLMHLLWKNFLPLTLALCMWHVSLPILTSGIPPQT
Sequence of B. taurus (heart) complex I (P17694 34-463): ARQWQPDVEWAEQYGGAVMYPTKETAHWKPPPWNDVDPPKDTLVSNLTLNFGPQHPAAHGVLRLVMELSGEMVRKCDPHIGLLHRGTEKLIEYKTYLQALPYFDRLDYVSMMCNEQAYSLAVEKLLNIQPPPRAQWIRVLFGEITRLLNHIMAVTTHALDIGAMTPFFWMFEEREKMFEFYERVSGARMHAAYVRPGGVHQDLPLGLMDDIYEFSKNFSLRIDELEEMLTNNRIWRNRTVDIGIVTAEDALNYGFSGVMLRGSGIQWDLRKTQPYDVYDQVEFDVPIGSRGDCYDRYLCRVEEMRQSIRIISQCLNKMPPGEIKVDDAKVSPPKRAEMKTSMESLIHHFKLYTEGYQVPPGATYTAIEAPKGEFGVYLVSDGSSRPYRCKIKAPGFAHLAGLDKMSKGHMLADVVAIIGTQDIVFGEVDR
Sequence of B. taurus (heart) complex I (P42026 38-216): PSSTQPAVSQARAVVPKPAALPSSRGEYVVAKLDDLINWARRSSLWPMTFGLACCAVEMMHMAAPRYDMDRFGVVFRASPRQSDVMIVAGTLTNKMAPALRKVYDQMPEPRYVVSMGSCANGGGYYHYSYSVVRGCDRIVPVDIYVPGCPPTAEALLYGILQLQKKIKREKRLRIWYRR

CC(C)(C)c1ccc(CCOc2ncnc3ccccc23)cc1 [Fenazaquin, reference compound]
IC50 [1]: 0.024 µM

COc1ccc(Cc2nccc3cc(OC)c(OC)cc23)cc1OC [Papaverine, reference compound]
remaining activity at 0.125 µM [1, 3]: 93.4% | remaining activity at 0.125 µM [1, 4]: 87.6% | remaining activity at 0.313 µM [1, 3]: 93.3% | remaining activity at 0.313 µM [1, 4]: 92.3% | remaining activity at 0.625 µM [1, 3]: 91.6% | remaining activity at 0.625 µM [1, 4]: 89.2% | remaining activity at 1.5 µM [1, 3]: 83.3% | remaining activity at 1.5 µM [1, 4]: 88.4% | remaining activity at 3 µM ([1]; 3 µM, B. taurus (heart) mitochondria, mean of replicates, read-out: percent (%) in vitro complex I activity relative to solvent control): 76.1% | remaining activity at 15 µM ([1]; 15 µM, B. taurus (heart) mitochondria, mean of replicates, read-out: percent (%) in vitro complex I activity relative to solvent control): 30.1% | remaining activity at 37.5 µM ([1]; 37.5 µM, B. taurus (heart) mitochondria, mean of replicates, read-out: percent (%) in vitro complex I activity relative to solvent control): 12.9% | remaining activity at 75 µM [1, 3]: 6.58% | remaining activity at 75 µM [1, 4]: 9.15% | IC50 [1]: 8.5 µM

O=C(NCCc1ccc(Cl)cc1)c1ccccc1C(F)(F)F [Wact-11]
C. elegans L1 relative motility, 3-hour post 200 µM KCN dilution (L1 wild-type C. elegans): 0.985 | KCN survival assay value relative to DMSO control (L1 wild-type C. elegans): 0.985 | relative motility, 20 min after KCN removal (L1 wild-type C. elegans): 0.070 | relative motility, 80 min after KCN removal (L1 wild-type C. elegans): 0.012 | relative motility, 110 min after KCN removal (L1 wild-type C. elegans): 0.018 | relative motility, 160 min after KCN removal (L1 wild-type C. elegans): 0.009 | relative motility, 180 min after KCN removal (L1 wild-type C. elegans): 0.000 | KCN survival assay value relative to DMSO control (L1 wild-type C. elegans; 15 hour drug + KCN treatment, dose 0.1 µM, Mean of replicates): 0.937 | KCN survival assay value relative to DMSO control (L1 wild-type C. elegans; 15 hour drug + KCN treatment, dose 0.2 µM, Mean of replicates): 0.997 | KCN survival assay value relative to DMSO control (L1 wild-type C. elegans; 15 hour drug + KCN treatment, dose 0.4 µM, Mean of replicates): 0.959 | KCN survival assay value relative to DMSO control (L1 wild-type C. elegans; 15 hour drug + KCN treatment, dose 0.8 µM, Mean of replicates): 0.815 | KCN survival assay value relative to DMSO control (L1 wild-type C. elegans; 15 hour drug + KCN treatment, dose 3.1 µM, Mean of replicates): 0.584 | KCN survival assay value relative to DMSO control (L1 wild-type C. elegans; 15 hour drug + KCN treatment, dose 6.3 µM, Mean of replicates): 0.376 | KCN survival assay value relative to DMSO control (L1 wild-type C. elegans; 15 hour drug + KCN treatment, dose 12.5 µM, Mean of replicates): 0.173 | KCN survival assay value relative to DMSO control (L1 wild-type C. elegans; 15 hour drug + KCN treatment, dose 25 µM, Mean of replicates): 0.067 | KCN survival assay value relative to DMSO control (L1 wild-type C. elegans; 15 hour drug + KCN treatment, dose 50 µM, Mean of replicates): 0.015 | KCN survival assay value relative to DMSO control (L1 wild-type C. elegans; 15 hour drug + KCN treatment, dose 100 µM, Mean of replicates): 0.006 | LC50 (L1 wild-type C. elegans; caenorhabditis elegans): 4.43 µM | C. elegans L1 relative motility, 3-hour post 200 µM KCN dilution (L1 wild-type C. elegans; dose 0.1 µM, Mean of replicates): 0.937 | C. elegans L1 relative motility, 3-hour post 200 µM KCN dilution (L1 wild-type C. elegans; dose 0.2 µM, Mean of replicates): 0.997 | C. elegans L1 relative motility, 3-hour post 200 µM KCN dilution (L1 wild-type C. elegans; dose 0.4 µM, Mean of replicates): 0.959 | C. elegans L1 relative motility, 3-hour post 200 µM KCN dilution (L1 wild-type C. elegans; dose 0.8 µM, Mean of replicates): 0.815 | C. elegans L1 relative motility, 3-hour post 200 µM KCN dilution (L1 wild-type C. elegans; dose 3.1 µM, Mean of replicates): 0.584 | C. elegans L1 relative motility, 3-hour post 200 µM KCN dilution (L1 wild-type C. elegans; dose 6.3 µM, Mean of replicates): 0.376 | C. elegans L1 relative motility, 3-hour post 200 µM KCN dilution (L1 wild-type C. elegans; dose 12.5 µM, Mean of replicates): 0.173 | C. elegans L1 relative motility, 3-hour post 200 µM KCN dilution (L1 wild-type C. elegans; dose 25 µM, Mean of replicates): 0.067 | C. elegans L1 relative motility, 3-hour post 200 µM KCN dilution (L1 wild-type C. elegans; dose 50 µM, Mean of replicates): 0.015 | C. elegans L1 relative motility, 3-hour post 200 µM KCN dilution (L1 wild-type C. elegans; dose 100 µM, Mean of replicates): 0.006 | C. elegans L1 relative motility, 3-hour post 200 µM KCN dilution (L1 wild-type C. elegans; dose […], Mean of replicates): 0.795

COC(=O)Nc1nc2ccc(C(=O)c3ccccc3)cc2[nH]1 [mebendazole, reference compound]
LC50 ([2]; read-out: C. elegans ben-1 LC50): > 250 µM | LC50 ([2]; read-out: C. elegans ben-1 log10 LC50 (converted)): > 250 µM | C. elegans L1 relative development & viability ([2]; 1 µM, score 0-1 relative to DMSO, values >1 set to 1): 1.000 | C. elegans L1 relative development & viability ([2]; 2 µM, score 0-1 relative to DMSO, values >1 set to 1): 1.000 | C. elegans L1 relative development & viability ([2]; 3.9 µM, score 0-1 relative to DMSO, values >1 set to 1): 1.000 | C. elegans L1 relative development & viability ([2]; 15.6 µM, score 0-1 relative to DMSO, values >1 set to 1): 1.000 | C. elegans L1 relative development & viability ([2]; 31.3 µM, score 0-1 relative to DMSO, values >1 set to 1): 1.000 | C. elegans L1 relative development & viability ([2]; 62.5 µM, […]): 0.948 | C. elegans L1 relative development & viability ([2]; 125 µM, […]): 0.701 | C. elegans L1 relative development & viability ([2]; 250 µM, […]): 0.623
